According to patent US11406721B2, “Compositions and methods for imaging cell populations” (The Regents of the University of California, priority 2016, dated 2022):

Tests used:
Assay type in all cases: physicochemical
[1] = Kinetic measurements of metal uptake into emulsion (UV-Vis); details: emulsion from example 4
Procedure: FIG. 15. Time course of metalation of FETRIS nanoemulsion with Fe^3+. Shown is the metalation of emulsion B (70 μM pAn-FDK and 10 μM Fe^3+, 8 mM HCl, pH 2.1). A single exponential fit yields kobs=0.69±0.10 min^−1
Strong absorbance of aromatic diketone and its complexes permits facile kinetic investigation of metalation rates. In atypical measurement, emulsion from example 4 was diluted to 70 uM diketone (excess ligand, modeling radiolabeling conditions) into a solution of chosen pH and treated with 10 uM metal cations of relevance to medical imaging, including Fe^3+ (MRI), Cu^2+ (PET), Ga^3+ (PET, SPECT), Sc^3+ (PET), and In^3+ (SPECT). In all cases, UV-Vis spectral changes indicative of metal uptake into the fluorous phase were detected, proportional in magnitude to the amount of metal. For some metals, kinetic analysis was performed. The reaction time course fit well to a pseudo-first-order process with rate constant kobs (Table 4).

[2] = 19F relaxometry of organic solutions containing paramagnetic dpm complexes; details: 50 mM complexes in 1:1 v/v PhCF3:acetone-d6, 9.4 T
Procedure: FIG. 10. ^19F relaxometry of organic solutions containing paramagnetic complexes. Relaxation rates of the CF3 group were measured in the presence of 50 mM tris-(dipivaloylmethanato) complexes Fe(dpm)3 (left) and Gd(dpm)3 (right) in 1:1 v/v PhCF3:acetone-d6 at 9.4 T in a sealed 5 mm NMR tubes. […] Solid lines are guide for the eye. While monomeric Fe(dpm)3 was highly soluble in PhCF3 alone, polymeric Gd(dpm)3 dissolved only in the presence of Lewis basic solvent acetone-d6. […] The observed ratio between R1(Gd) and R1(Fe) was 1.72-1.77, consistent with the expected 1.8-fold difference due to the S(S+1) term in Eq. S, curtailed by a slight increase in the distance of minimal approach due to the larger size of Gd.
To highlight the critical effect of viscosity on relaxation rates, we measured PRE caused by different metal ions in non-viscous organic solutions containing trifluorotoluene (PhCF3) and iron or gadolinium chelates of dipivaloylmethane, Fe(dpm)3 and Gd(dpm)3. Under these conditions, gadolinium provided higher R1 than iron, as expected from the greater spin of Gd^3+. […] In contrast, the divergent temperature dependence of R1 and R2 in FETRIS nanoemulsion (FIG. 3D) is indicative of slow molecular motion in the fluorous phase.

[3] = Small fluorinated diketones: relaxation enhancement and stability under EDTA competition and cell labeling; details: metalated small fluorinated diketones
From the text: It may be necessary for sufficient stability to use fluorinated diketones with heavily fluorinated substituents that are well-miscible with other fluorinated agents known in the art to be useful for ^19F MRI.

[4] = 19F relaxometry of PFPE nanoemulsion doped with H-fod and metal chloride; details: 9.4 T
From the text: FIG. 1. Comparison of iron and gadolinium diketonates (H-fod) as ^19F relaxation agents for PFPE. […] R1 and R2 values are reported for the main PFPE peak at −91.4 ppm.
FIG. 11. ^19F relaxometry of PFPE with metalated small diketones. PFPE nanoemulsion was doped in the fluorous phase with small fluorinated diketones H-fod and H-hfp. […] The left panels display broad ^19F NMR signals of CF2 groups of H-fod and H-hfp observed in the absence of metals indicating poor solubility of the ligands in the fluorous phase. […] The right panel show the time course of metalation of PFPE+H-fod nanoemulsion measured by ^19F relaxometry. R1 and R2 were measured for main PFPE peak at −91 ppm at different time points. The solid lines are guides for the eye. The appearance of orange color of Fe(fod)3 correlated with an increase in relaxation rates. Metalation of PFPE emulsions doped with H-fod with Fe^3+ was several orders of magnitude slower than metalation of emulsions containing pAn-FDK (FIG. 15).
Initially, the results of the PRE modeling [Example 2 and FIG. 9] using small molecules were tested. Fluorinated β-diketone H-fod (FIG. 1) was chosen as starting point. […] Addition of 0.7 mM FeCl3 led to the slow formation of orange-colored Fe(fod)3 and a commensurate increase in R1 from 2.3 to 27.0 s^−1 and in R2 from 4.0 to 85.6 s^−1 (at 9.4 T) of the major PFPE resonance (−91.4 ppm) by 24 hours (FIG. 11). With GdCl3, lower R1 (12.8 s^−1) and higher R2 (285 s^−1) values were obtained.

[5] = final [M^3+] 10 uM, [ligand] 70 uM, pH 2.1 (8 mM HCl)

| Compound | enhancing relaxation [3] | stability under the conditions of EDTA competition and cell labeling [3] | other results |
| --- | --- | --- | --- |
| [Cl][Fe]([Cl])[Cl] [FeCl3] |  |  | kobs ([1]; final [M^3+] 5 uM, [ligand] 70 uM, pH 2.1 (8 mM HCl)): 0.79 min⁻¹; kobs [1, 5]: 0.70 min⁻¹ |
| [Cl][Ga]([Cl])[Cl] [GaCl3] |  |  | kobs [1, 5]: 0.043 min⁻¹ |
| CC(C)(C)C(=O)C=C(O)C(C)(C)C.CC(C)(C)C(=O)C=C(O)C(C)(C)C.CC(C)(C)C(=O)C=C(O)C(C)(C)C.[Gd] [Gd(dpm)3] |  |  | ratio between R1(Gd) and R1(Fe) [2]: 1.72-1.77 |
| O=C(/C=C(\O)c1ccccc1)C(F)F [H-bda] | highly effective | not stable enough |  |
| O=C(CC(=O)C(F)(F)F)c1ccccc1 [H-bta] | highly effective | not stable enough |  |
| CC(C)(C)/C(O)=C/C(=O)C(F)(F)C(F)(F)C(F)(F)F [H-fod] | highly effective | not stable enough | R1 of major PFPE resonance (−91.4 ppm) ([4]; PFPE nanoemulsion + 2.8 mM H-fod + 0.7 mM FeCl3, by 24 hours): 27.0 s⁻¹; R1 of major PFPE resonance ([4]; PFPE nanoemulsion + 2.8 mM H-fod with GdCl3): 12.8 s⁻¹; R1 of major PFPE resonance (−91.4 ppm) ([4]; PFPE nanoemulsion + 2.8 mM H-fod, before metal addition): 2.3 s⁻¹ |
| C/C(O)=C/C(=O)C(F)(F)C(F)(F)C(F)(F)F [H-hhd] | highly effective | not stable enough |  |
| C/C(O)=C/C(=O)C(F)(F)C(F)(F)C(F)(F)C(F)(F)C(F)(F)C(F)(F)F [H-tdd] | highly effective | not stable enough |  |
| O=C(CC(=O)C(F)(F)F)c1cccs1 [H-tta] | highly effective | not stable enough |  |
| [Cl-].[Cl-].[Cl-].[In+3] [InCl3] |  |  | kobs ([1]; final [M^3+] 2 uM, [ligand] 14 uM, pH ~5 (unbuffered H2O)): >10 min⁻¹; kobs ([1]; final [M^3+] 10 uM, [ligand] 70 uM, pH 7.4 HEPES): 0.0322 min⁻¹ |
